# Experimental data published in PMC4657098, “A Review of the Updated Pharmacophore for the Alpha 5 GABA(A) Benzodiazepine Receptor Model” (International Journal of Medicinal Chemistry, 2015).
# Entries after “also recorded” stand apart in the source; their conditions may differ.
# Key:
# [1] = molecular target: T1, D4 (Homo sapiens, UniProt P21917); test: PDSP receptor binding, D4; conditions: PDSP primary screen at 10 µM
# T1 construct: purchased NIMH PDSP (Psychoactive Drug Screening Program, Roth lab, Case Western Reserve)
# [2] = molecular target: T2, D1 (Homo sapiens, UniProt P21728); test: PDSP receptor binding, D1; conditions: PDSP primary screen at 10 µM
# T2 construct: purchased NIMH PDSP (Psychoactive Drug Screening Program, Roth lab, Case Western Reserve)
# [3] = molecular target: T3, 5ht1e (Homo sapiens, UniProt P28566); test: PDSP receptor binding, 5ht1e; conditions: PDSP primary screen at 10 µM
# T3 construct: purchased NIMH PDSP (Psychoactive Drug Screening Program, Roth lab, Case Western Reserve)
# [4] = test system: σ2; test: PDSP receptor binding, σ2; conditions: PDSP primary screen at 10 µM
# [5] = molecular target: T4, MOR (Homo sapiens, UniProt P35372); test: PDSP receptor binding, MOR; conditions: PDSP primary screen at 10 µM
# T4 construct: purchased NIMH PDSP (Psychoactive Drug Screening Program, Roth lab, Case Western Reserve)
# [6] = molecular target: T5, M4 (Homo sapiens, UniProt P08173); test: PDSP receptor binding, M4; conditions: PDSP primary screen at 10 µM
# T5 construct: purchased NIMH PDSP (Psychoactive Drug Screening Program, Roth lab, Case Western Reserve)
# [7] = molecular target: T6, σ1 (Homo sapiens, UniProt Q99720); test: PDSP receptor binding, σ1; conditions: PDSP primary screen at 10 µM
# T6 construct: purchased NIMH PDSP (Psychoactive Drug Screening Program, Roth lab, Case Western Reserve)
# [8] = molecular target: T7, α1A (Homo sapiens, UniProt P35348); test: PDSP receptor binding, α1A; conditions: PDSP primary screen at 10 µM
# T7 construct: purchased NIMH PDSP (Psychoactive Drug Screening Program, Roth lab, Case Western Reserve)
# [9] = molecular target: α6β3γ2 GABAA/BzR (Homo sapiens, UniProt P18507+Q16445); test: Competition binding to HEK cell membranes, α6β3γ2; design: expressed in transfected cells; conditions: Figure 5; read-out: Ki α6
# [10] = molecular target: T8, α2B (Homo sapiens, UniProt P18089); test: PDSP receptor binding, α2B; conditions: PDSP primary screen at 10 µM
# T8 construct: purchased NIMH PDSP (Psychoactive Drug Screening Program, Roth lab, Case Western Reserve)
# [11] = PDSP receptor binding, β1B; conditions: PDSP primary screen at 10 µM
# [12] = molecular target: α3β3γ2 GABAA/BzR (Homo sapiens, UniProt P18507+P34903); test: Competition binding to HEK cell membranes, α3β3γ2; design: expressed in transfected cells; conditions: Figure 5; read-out: Ki α3
# [13] = molecular target: T9, DAT (Homo sapiens, UniProt Q01959); test: PDSP receptor binding, DAT; conditions: PDSP primary screen at 10 µM
# T9 construct: purchased NIMH PDSP (Psychoactive Drug Screening Program, Roth lab, Case Western Reserve)
# [14] = molecular target: T10, CB1 (Homo sapiens, UniProt P21554); test: PDSP receptor binding, CB1; conditions: PDSP primary screen at 10 µM
# T10 construct: purchased NIMH PDSP (Psychoactive Drug Screening Program, Roth lab, Case Western Reserve)
# [15] = molecular target: T11, 5ht7 (Homo sapiens, UniProt P34969); test: PDSP receptor binding, 5ht7; conditions: PDSP primary screen at 10 µM
# T11 construct: purchased NIMH PDSP (Psychoactive Drug Screening Program, Roth lab, Case Western Reserve)
# [16] = molecular target: T12, CB2 (Homo sapiens, UniProt P34972); test: PDSP receptor binding, CB2; conditions: PDSP primary screen at 10 µM
# T12 construct: purchased NIMH PDSP (Psychoactive Drug Screening Program, Roth lab, Case Western Reserve)
# [17] = molecular target: KOR (Homo sapiens, UniProt P41145); test: PDSP receptor binding, KOR; conditions: Case Western Reserve University, read-out: KOR Ki (secondary binding)
# [18] = molecular target: T13, 5ht1a (Homo sapiens, UniProt P08908); test: PDSP receptor binding, 5ht1a; conditions: PDSP primary screen at 10 µM
# T13 construct: purchased NIMH PDSP (Psychoactive Drug Screening Program, Roth lab, Case Western Reserve)
# [19] = molecular target: T14, α2A (Homo sapiens, UniProt P08913); test: PDSP receptor binding, α2A; conditions: PDSP primary screen at 10 µM
# T14 construct: purchased NIMH PDSP (Psychoactive Drug Screening Program, Roth lab, Case Western Reserve)
# [20] = test system: other receptors (PDSP panel); test: Full PDSP panel receptor binding; conditions: NIMH PDSP, Case Western Reserve
# [21] = molecular target: T15, M5 (Homo sapiens, UniProt P08912); test: PDSP receptor binding, M5; conditions: PDSP primary screen at 10 µM
# T15 construct: purchased NIMH PDSP (Psychoactive Drug Screening Program, Roth lab, Case Western Reserve)
# [22] = test system: MDR; test: PDSP receptor binding, MDR; conditions: PDSP primary screen at 10 µM
# [23] = molecular target: T16, Beta2 (Homo sapiens, UniProt P07550); test: PDSP receptor binding, Beta2; conditions: PDSP primary screen at 10 µM
# T16 construct: purchased NIMH PDSP (Psychoactive Drug Screening Program, Roth lab, Case Western Reserve)
# [24] = molecular target: α5β3γ2 GABAA/BzR (Homo sapiens, UniProt P18507+P31644); test: Competition binding to HEK cell membranes, α5β3γ2; design: expressed in transfected cells; conditions: Figure 5; read-out: Ki α5
# [25] = molecular target: T17, H1 (Homo sapiens, UniProt P35367); test: PDSP receptor binding, H1; conditions: PDSP primary screen at 10 µM
# T17 construct: purchased NIMH PDSP (Psychoactive Drug Screening Program, Roth lab, Case Western Reserve)
# [26] = test system: NMDA; test: PDSP receptor binding, NMDA; conditions: PDSP primary screen at 10 µM
# [27] = test system: mice; design: method as in earlier work; conditions: cited from earlier work
# [28] = molecular target: T18, 5ht2c (Homo sapiens, UniProt P28335); test: PDSP receptor binding, 5ht2c; conditions: PDSP primary screen at 10 µM
# T18 construct: purchased NIMH PDSP (Psychoactive Drug Screening Program, Roth lab, Case Western Reserve)
structure (smiles),measurement,setting,value
"CCc1ccc2c(c1)C(=O)N(C)Cc1c(C(=O)OCCCOC(=O)c3ncn4c3CN(C)C(=O)c3cc(CC)ccc3-4)ncn1-2 [XLi-356 (10), 1,3-Bis(8-ethyl-5,6-dihydro-5-methyl-6-oxo-4H-imidazo[1,5a][1,4]benzodiazepine-3-carboxy) propyl diester]",D4 binding,[1],∗ (“∗” indicates “primary missed” (<50% inhibition at 10 µM))
same,D1 binding,[2],∗ (“∗” indicates “primary missed” (<50% inhibition at 10 µM))
same,5ht1e binding,[3],∗ (“∗” indicates “primary missed” (<50% inhibition at 10 µM))
same,σ2 binding,[4],∗ (“∗” indicates “primary missed” (<50% inhibition at 10 µM))
same,MOR binding,[5],∗ (“∗” indicates “primary missed” (<50% inhibition at 10 µM))
same,M4 binding,[6],∗ (“∗” indicates “primary missed” (<50% inhibition at 10 µM))
same,σ1 binding,[7],∗ (“∗” indicates “primary missed” (<50% inhibition at 10 µM))
same,α1A binding,[8],∗ (“∗” indicates “primary missed” (<50% inhibition at 10 µM))
same,Ki,[9],5 µM
same,α2B binding,[10],∗ (“∗” indicates “primary missed” (<50% inhibition at 10 µM))
same,β1B binding,[11],∗ (“∗” indicates “primary missed” (<50% inhibition at 10 µM))
same,Ki,[12],8.55 µM
same,DAT binding,[13],∗ (“∗” indicates “primary missed” (<50% inhibition at 10 µM))
same,CB1 binding,[14],∗ (“∗” indicates “primary missed” (<50% inhibition at 10 µM))
same,5ht7 binding,[15],∗ (“∗” indicates “primary missed” (<50% inhibition at 10 µM))
same,CB2 binding,[16],∗ (“∗” indicates “primary missed” (<50% inhibition at 10 µM))
same,Ki,[17],6.12 µM
same,5ht1a binding,[18],∗ (“∗” indicates “primary missed” (<50% inhibition at 10 µM))
same,α2A binding,[19],∗ (“∗” indicates “primary missed” (<50% inhibition at 10 µM))
same,full panel receptor binding,[20],do not bind to other receptors at levels of concern
same,M5 binding,[21],∗ (“∗” indicates “primary missed” (<50% inhibition at 10 µM))
same,MDR binding,[22],∗ (“∗” indicates “primary missed” (<50% inhibition at 10 µM))
same,Beta2 binding,[23],∗ (“∗” indicates “primary missed” (<50% inhibition at 10 µM))
same,Ki,[24],0.101 µM
same,H1 binding,[25],∗ (“∗” indicates “primary missed” (<50% inhibition at 10 µM))
same,NMDA binding,[26],∗ (“∗” indicates “primary missed” (<50% inhibition at 10 µM))
same,audio cued fear conditioning,[27],no activity; also recorded: not able to reverse
same,5ht2c binding,[28],∗ (“∗” indicates “primary missed” (<50% inhibition at 10 µM))
